In assay [1] the target is T1, MMP-9 (Homo sapiens, UniProt P14780).
T1 construct: Das latente Enzym wird durch 30 - 60 min; Inkubation bei 37°C mit 1/100 Vol. Trypsin (10 mg/ml) aktiviert; from tissue; host or cells: human buffy coat (blood leukocytes)
Kind of assay: Quantitative fluorescence assay for matrix metalloproteinases (cleavage of Mca-Pro-Leu-Gly-Leu-Dpa-Ala-Arg-NH2). The assay is classed as biochemical. The settings on record: bei 10 µM. On the procedure: Native MMP-9 wurde reproduzierbar und in guter Ausbeute und Reinheit aus humanem Buffy Coat gewonnen. Hierzu wird Buffy Coat mit 10% (v/v) Triton X-100 auf eine Endkonzentration von 0,4% gebracht, 30 min. auf Eis geschüttelt und dann 1 Vol. 2-fach Bindungspuffer (40 mM Tris-HCI pH 7,5, 10 mM CaCl2, 1 M NaCI, 0,2% (v/v) Triton X-100) hinzugefügt und weitere 30 min. auf Eis geschüttelt. Die Lösung wird 15 min. bei 16 000 Upm an einem SS-34 Rotor bei 4°C abzentrifugiert und über Glaswolle filtriert. Das Filtrat wird mit Gelatine-Agarose, welche mit Bindungspuffer äquilibriert wurde, gebatcht und 1 Std. auf Eis geschüttelt. Die beladene Gelatine-Agarose wird in eine Säule überführt und mit mindestens 10 Vol. Bindungspuffer proteinfrei gespült. Die Elution der gebundenen MMP-9 erfolgt mit 2 Gelvolumen Bindungspuffer plus 5% (v/v) DMSO. Das Eluat kann zum Puffer-Austausch und gleichzeitiger Abtrennung geringer Verunreinigungen an MMP-2 über eine Gelfiltration an Sephadex G-75 aufgetrennt werden. Hierzu wird der Puffer I (20 mM Tris-HCI pH 7,5, 5 mM CaCl2, 100 mM NaCI, 0,1% (v/v) Triton X-100) verwendet. Das so gewonnene Eluat enthällt MMP-9 in den drei bekannten Zustandsformen: Monomer, Homodimer, Heterodimer. Die Reinheit des Enzyms beträgt ca. 90%, wobei die restlichen Fremdproteine Fibronektin und äußerst geringe Mengen an TIMP's sind. Das latente Enzym wird durch 30 - 60 min. Inkubation bei 37°C mit 1/100 Vol. Trypsin (10 mg/ml) aktiviert. Trypsin wird durch Zugabe von 1 mM PMSF oder mit einem spezifischen Inhibitor (TKI) gehemmt.
(§1) Durch enzymatische Spaltung des synthetischen Substrates Mca-Pro-Leu-Gly-Leu-Dpa-Ala-Arg-NH2 durch die jeweilige Kollagenase, wird die fluoreszente Gruppe Mca ((7-Methoxycoumarin-4-yl)acetyl) vom internen Quencher Dpa ((N-3-(2,4-dinitrophenyl)-L-2,3-diaminopropienyl) getrennt. Dabei erfolgt eine starke Zunahme der Fluoreszenz im Messansatz, die am Fluorimeter quantifiziert werden kann (λex 328 nm, λem 393 nm) und innerhalb der ersten Minuten linear verläuft. Eine gewisse Spezifität des Tests für Matrix-Metalloproteinasen ergibt sich einerseits aus der Aminosäuresequenz -Pro-Leu-Gly-Leu- im Substrat und andererseits durch die gewählten Inkubationsbedingungen. Matrix-Metalloproteinasen spalten das Substrat an der Bindung Gly-Leu. Gemessen wird die proteolytische Restaktivität vorinkubierter Ansätze von Enzym und Inhibitor, wobei die Substrat- und Enzymkonzentration konstant gehalten und die Inhibitorkonzentration variiert wurde. Es wurden für jeden getesteten Inhibitor drei Messreihen mit unterschiedlicher Substratkonzentration aufgenommen. Aus der zeitabhängigen Fluoreszenzzunahme wird die Enzymaktivität in Fluoreszenzeinheiten pro min berechnet. Die Bestimmung der Ki-Werte erfolgte graphisch nach der Methode von DIXON (1953) durch Auftragung der reziproken Reaktionsgeschwindigkeit 1/v (y-Achse) gegen Inhibitorkonzentration (x-Achse).
(§2) 1984 µl Messpuffer (100mM Tris-HCI pH 7,5, 100 mM NaCI, 10 mM CaCl2, 0,05% Brij 35 bzw. 50 mM MES-NaOH, pH 6.0, 10 mM CaCl2, 100 mM NaCI, 0.05% Brij 35 im Fall der KaDo MMP-3) 2 µl Inhibitor, gelöst in DMSO, bzw. DMSO allein (nichtinhibierender Ansatz) 4 µl Enzym • 5 min. Vorinkubation des Enzym-Inhibitor-Gemischs bei Raumtemperatur unter Rühren • Start der Reaktion mit 10 µl Substrat gelöst in DMSO • Aufzeichnung der zeitabhängigen Fluoreszenzzunahme über 2 - 10 min.

In assay [2] the target is T2, katalytische Domäne der MMP-8 (Homo sapiens, UniProt P22894).
T2 construct: dass wir statt des Gesamtenzyms nur dessen enzymatisch aktive katalytische Domäne in E. coli klonierten; made in house; host or cells: E. coli
T2 sequence (P22894 100-262 limits assumed): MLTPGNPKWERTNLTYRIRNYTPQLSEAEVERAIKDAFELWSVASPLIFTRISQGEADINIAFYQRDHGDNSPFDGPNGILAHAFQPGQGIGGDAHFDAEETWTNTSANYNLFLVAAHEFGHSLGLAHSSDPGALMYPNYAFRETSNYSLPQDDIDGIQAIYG
The assay is described as above. It is filed as biochemical.
From the text: Die Nutzung der katalytischen Domäne der MMP-8 als weiteres Testenzym wurde deshalb gewählt, weil es eine hohe Stabilität besitzt und darüber hinaus als aktives Enzym vorliegt. Es muß deshalb nicht aktiviert werden, was eine der häufigsten Fehlerursachen darstellt, da die zur Aktivierung genutzten Quecksilberverbindungen häufig mit dem Testsystem bzw. dem Enzym interferieren und dadurch die Messergebnisse verfälschen werden. Die Klonierungsstrategie gestalteten wir so, dass wir statt des Gesamtenzyms nur dessen enzymatisch aktive katalytische Domäne in E. coli klonierten. Mit der konstruierten katalytischen Domäne der MMP-8 erzielten wir ein stabiles, enzymatisch aktives und hochreines Enzym, welches für die Routineuntersuchungen der inhibitorischen Aktivität der synthetisierten Inhibitoren sehr gut geeignet war und die Messergebnisse der einzelnen Messserien miteinander vergleichbar machte. Die Klonierung und Expression der katalytischen Domäne der MMP-8 wurde entsprechend den Angaben von SCHNIERER et al. (Schnierer S, Kleine T, Gote T, Hillemann A, Knäuper V, Tschesche H: The recombinant catalytic domain of human neutrophil collagenase lacks type I collagen substrate specificity. Biochem Biophys Res Comm (1993) vol. 191 No. 2, 319-326) durchgeführt.
as §1, §2

pKi: −log10 of the molar value.

By pKi is commonly meant the negative decadic logarithm of the Ki, by convention in mol/L. Lower therefore signals a high Ki.

T1 sequence (P14780 107-707 limits assumed): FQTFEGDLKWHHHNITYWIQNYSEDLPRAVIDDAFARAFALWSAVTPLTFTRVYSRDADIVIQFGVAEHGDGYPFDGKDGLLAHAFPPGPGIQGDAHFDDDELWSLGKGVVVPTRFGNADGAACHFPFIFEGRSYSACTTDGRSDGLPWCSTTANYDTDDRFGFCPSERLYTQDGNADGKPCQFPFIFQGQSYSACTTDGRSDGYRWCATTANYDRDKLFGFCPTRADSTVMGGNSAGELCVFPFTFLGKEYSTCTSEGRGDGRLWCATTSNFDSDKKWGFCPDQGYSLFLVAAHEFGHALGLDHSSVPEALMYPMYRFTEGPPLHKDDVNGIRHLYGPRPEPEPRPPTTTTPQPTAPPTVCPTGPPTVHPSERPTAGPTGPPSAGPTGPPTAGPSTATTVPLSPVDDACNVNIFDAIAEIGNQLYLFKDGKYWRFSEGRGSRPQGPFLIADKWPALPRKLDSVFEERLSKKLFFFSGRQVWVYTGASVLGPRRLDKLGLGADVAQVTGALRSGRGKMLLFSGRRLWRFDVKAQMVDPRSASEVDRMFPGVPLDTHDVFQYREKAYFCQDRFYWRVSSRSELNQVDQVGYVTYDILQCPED

Take `CC(S)(CS)Cn1c(=O)[nH]c2ccccc2c1=O` (racemic) [Beispiel 2, (R,S)-3-(2,3-Dimercapto-2-methylpropyl)chinazolin-2,4-(1H,3H)dion]: the “MMP-9 Hemmung” value in assay [1] is on record as 10% Hemmung bei 10 µM. This compound also had a pKi in assay [2] (Dixon plot) of 4.22.

In the case of `Cc1cccc2c(=O)n(CC(S)CS)c(=O)[nH]c12` (racemic) [Beispiel 6, (R,S)-3-(2,3-Dimercaptopropyl)-8-methyl-chinazolin-2,4-(1H,3H)dion], in assay [1], the “MMP-9 Hemmung” value is listed as 55% Hemmung bei 10 µM. Besides, the “MMP-8 Hemmung” value in assay [2] (bei 10 µM) amounted to 43% Hemmung bei 10 µM.

Values taken from EP1357114A1, “Substituted pyrimidin-2,4(1H,3H)-diones as inhibitors of Matrix Metalloproteinases (MMP)” (IBFB GmbH Privates Institut für biomedizinische Forschung …, priority 2002, dated 2003).
